Assay results published in patent publication EP0915894B1, “NUCLEOTIDE ANALOGS” (GILEAD SCIENCES, INC., priority 1996, dated 1998).

What was measured:
[1] = Cytotoxicity in MT-2 cells (concentration to kill 50% of the cells); assay type: cell-based; details: human
Description: (§1) PMPA (9-[(R)-2-(phosphonomethoxy)propyl]adenine) and PMPA carbonates were examined to determine their activity against HIV-1.

HIV-1(IIIB) = assay: Antiviral activity against HIV-1(IIIB) in MT-2 cells (tissue culture); assay type: cell-based; details: for SI - Selectivity Index(CC50/IC50): CC50/IC50, HIV-1, MT-2 cells; for IC50: Human immunodeficiency virus 1, MT2, HIV-1(IIIB), MT-2 cells, read-out: IC50 (50% inhibitory concentration)
Description: as §1

[2] = Chemical (solution) stability of PMPA carbonates; assay type: physicochemical; details: compared with preferred t 1/2 at pH 7.4 (> 2-12 hours) and at pH 2.0 (> 1, 10 or 100 hours)
Description: The solution stability of PMPA carbonates was studied at pH 7.4 at 37°C in 10 mM buffer (NaH2PO4 and Na2HPO4) with the total ionic strength adjusted to 0.15 M with KCl. The assays were performed by adding 200 µL of a PMPA carbonate stock solution (about 1 mg/mL in DMSO) to 10 mL of pre-equilibrated buffer at 37°C. Samples were removed at specific times points and analyzed by HPLC. The chemical t 1/2 is expressed in terms of the number of hours required to hydrolyze 50% of the carbonate at the specified pH.

MT-2 cells = assay: Cytotoxicity in MT-2 cells (concentration to kill 50% of the cells); assay type: cell-based
Description: as §1

Description for physchem: as §1

With `C[C@H](Cn1cnc2c(N)ncnc21)OCP(=O)(O)O` [compound 2, 9-[(R)-2-(phosphonomethoxy)propyl]adenine, reference compound] the CC50 [1] was 250000 nM, the logP (physchem) was -2.5 and the “SI - Selectivity Index(CC50/IC50)” value (HIV-1(IIIB)) was 500. For the same compound, the IC50 (HIV-1(IIIB)) was 500 nM.

With `C[C@H](Cn1cnc2c(N)ncnc21)OCP(=O)(OCOC(=O)OC(C)(C)C)OCOC(=O)OC(C)(C)C` [5d] the “t 1/2 (chemical stability)” value [2] was “less stable than these parameters”, the CC50 (MT-2 cells) was 10000 nM and the “SI - Selectivity Index(CC50/IC50)” value (HIV-1(IIIB)) was 50. The IC50 (HIV-1(IIIB)) was 200 nM and the “increased potency / activity compared to PMPA” value (HIV-1(IIIB); anti-HIV-1 activity relative to PMPA) was 2.5 fold.

With `CC(C)COC(=O)OCOP(=O)(CO[C@H](C)Cn1cnc2c(N)ncnc21)OCOC(=O)OCC(C)C` [5c] the CC50 (MT-2 cells) was 30000 nM, the “SI - Selectivity Index(CC50/IC50)” value (HIV-1(IIIB)) was 30000 and the IC50 (HIV-1(IIIB)) was < 1 nM.

In the case of `CCC(CC)OC(=O)OCOP(=O)(CO[C@H](C)Cn1cnc2c(N)ncnc21)OCOC(=O)OC(CC)CC` [5g], the CC50 (MT-2 cells) is reported as 40000 nM, the “SI - Selectivity Index(CC50/IC50)” value (HIV-1(IIIB)) is reported as 40000 and the IC50 (HIV-1(IIIB)) is reported as < 1 nM.

For `CCOC(=O)OCOP(=O)(CO[C@H](C)Cn1cnc2c(N)ncnc21)OCOC(=O)OCC` [5a], the CC50 (MT-2 cells) was 40000 nM, the “SI - Selectivity Index(CC50/IC50)” value (HIV-1(IIIB)) was 20000 and the IC50 (HIV-1(IIIB)) was 2 nM.

For `CC(C)OC(=O)OCOP(=O)(CO[C@H](C)Cn1cnc2c(N)ncnc21)OCOC(=O)OC(C)C` [5f], the CC50 (MT-2 cells) was 50000 nM, the “SI - Selectivity Index(CC50/IC50)” value (HIV-1(IIIB)) was 16600 and the IC50 (HIV-1(IIIB)) was 3 nM.

With `C[C@H](Cn1cnc2c(N)ncnc21)OCP(=O)(OCOC(=O)OCC(C)(C)C)OCOC(=O)OCC(C)(C)C` [5e] the CC50 (MT-2 cells) was 3000 nM, the “SI - Selectivity Index(CC50/IC50)” value (HIV-1(IIIB)) was 3000 and the IC50 (HIV-1(IIIB)) was < 1 nM.
